Results on 2 molecules are retold here after patent US12410141B2, “Anti-cancer spirocyclic-guanidine compounds and uses thereof” (The Johns Hopkins University, priority 2020, dated 2025).

For series [1], the system named is ES2. The series is described as follows: MTT cytotoxicity assay, ES2. Type of series: cell-based. As to conditions: ES2, ovarian, 72 hr, read-out: IC50, cell killing. The procedure:
(§1) All cell lines were obtained from the American Type Culture Collection (ATCC) and cultured in the specified medium supplemented with 10% fetal bovine serum, 100 IU/mL penicillin, and 100 μg/mL streptomycin at 37° C. in a humidified 5% CO2/95% air incubator. To assess drug cytotoxicity cells were seeded at 2,500 cells/well (10,000 cells/well for MM lines and primary cells) in 100 μL medium in 96-well plate. […]
(§2) It was examined whether the RPN13 inhibitor, RA475, was cytotoxic for cancer cell lines using the MTT assay.
For orientation: Tetrazolium assays rely on reduction of a dye to a coloured formazan, in cell work by metabolically active cells.

Series [2] concerns PEO23. The series can be described thus: MTT cytotoxicity assay, PEO23. Type of series: cell-based. As to conditions: PEO23, ovarian, 72 hr, read-out: IC50, cell killing. The procedure: as §1, §2
Series [3] relates to MC38. The series can be described thus: MTT cytotoxicity assay, MC38. Type of series: cell-based. The following applies: MC38, colon, 72 hr, read-out: IC50, cell killing. The procedure: as §1, §2
For series [4], the system named is high molecular weight polyubiquitinated proteins in OVCAR3 cells. The series is described as follows: Western blot for polyubiquitinated proteins, OVCAR3 cells. It counts as cell-based. As to conditions: RA475 0.5 μM and 1 μM. As to the method:
Cell lysate (10-20 μg total protein) prepared in MPER (Pierce) from each sample was subjected to SDS-PAGE, transferred to PVDF membranes and analyzed by Western blot using antibodies specific for ubiquitin (P4D1, sc-8017, Santa Cruz), or after stripping antibody for actin (#66009, Protein Tech Group), at the dilutions recommended by the manufacturers, and for secondary antibodies either peroxidase-linked anti-mouse IgG or anti-rabbit IgG (GE Healthcare UK Ltd) were utilized at the recommended dilution. The blots were developed using HyGLO chemiluminescent detection reagent (Denville).
Proteasome inhibitors cause a rapid accumulation of polyUb proteins that is associated with unresolved UPR stress and the induction of apoptosis. Since RA475 is cytotoxic to ovarian cancer cells (Table 1), and induces such a rapid accumulation of polyUb proteins (FIG. 5), it was examined whether RA475 also triggered apoptosis. SKOV3 cells (FIG. 5A) were treated with Up284 (0.5 μM and 1 μM), 1 μM RA190, RA475 (0.5 μM and 1 μM) or vehicle alone (DMSO) and then cultured for 12 hr. OVCAR3 cells (FIG. 5B) were treated with Up284 (0.5 μM), Bortezomib (Bz, 0.25 μM), Ixazomib (Iz, 0.25 μM), RA475 (0.5 μM and 1 μM) or vehicle alone (DMSO). The attached cells were harvested and their lysates were subjected to Western blot analysis, first probed with antibody to ubiquitin and then to actin.
(Immunoblotting shows a protein as a band on a membrane.)

Series [5] concerns TC1. The series can be described thus: MTT cytotoxicity assay, TC1. It counts as cell-based. As to conditions: TC1, cervical, 72 hr, read-out: IC50, cell killing. As to the method:
as §1, §2

Series [6] concerns ES2. The series is described as follows: Flow cytometry analysis of cell death, ES2. As to conditions: 1 μM or 2 μM, 16 hr. It counts as cell-based. The procedure: 10^5 cells were re-suspended in binding buffer, 5 μL of Annexin V-PE (Apoptosis Detection Kit I (BD Pharmingen) and 5 μL of 7-AAD were then added into the cells, which were then incubated at room temperature for 15 minutes and analyzed by flow cytometry on a FACSCalibur using CellQuest software (Becton Dickinson).
Two ovarian cancer cell lines, ES2 and OVCAR3, were treated with 1 μM or 2 μM RA475 and 16 hr later the cells were harvested and stained with 7-AAD and Annexin V. 7-AAD is a DNA dye that can enter dying cells and Annexin V is commonly used to detect apoptotic cells by its ability to bind to phosphatidylserine, an early marker of apoptosis when it is exposed on the outer leaflet of the plasma membrane.
In general terms: A flow cytometer gives signals particle by particle.

For series [7], the system named is CD-1 mice. The series is described as follows: Single-dose tolerability in CD-1 mice. Type of series: in vivo, mouse. As to the method:
All animal procedures were performed according to protocols approved by the Johns Hopkins University Animal Care and Use Committee, and in accordance with the AAALAC recommendations for the proper use and care of laboratory animals (protocol MO15M375, renewed as MO18M129). Four to six week old female CD-1 mice were purchased from Jackson Laboratories (ME, USA). Isoflurane anesthesia was used during imaging. The health conditions and/or criteria under which early euthanasia or withdrawal of an animal from the study was implemented included, but are not limited to, general signs of distress such as hunched posture, lethargy, anorexia, dehydration, rough hair coat and/or those that are directly related to the experimental procedures e.g. loss of weight >10%, lethargy, restricted movement of limbs, distended abdomen. Animals in distress were euthanized by carbon dioxide asphyxiation, and cervical dislocation was used to ensure death. This is an acceptable form of euthanasia for mice and in compliance with the recommendations of the Panel on Euthanasia of the American Veterinary Medical Association.
RA475 powder was directly dissolved in 25% β-hydroxy propyl cyclodextrin as a clear solution and administered at increasing single doses to CD-1 mice (n=3) via intraperitoneal injection.

For series [8], the system named is HeLa. The series can be described thus: MTT cytotoxicity assay, HeLa. It counts as cell-based. As to conditions: cervical, 72 hr, read-out: IC50, cell killing. As to the method:
as §1, §2

Series [9] has as its system BT549. The series is described as follows: MTT cytotoxicity assay, BT549. Type of series: cell-based. The following applies: BT549, breast, 72 hr, read-out: IC50, cell killing. As to the method:
as §1, §2

Series [10] concerns the target T1, 42 kDa RPN13 (Homo sapiens, UniProt Q16186).
T1 construct: endogenous in cells; host or cells: ES2 cell lysate (clarified, in MPER buffer)
The series can be described thus: RA190B competitive labeling assay in ES2 cell lysate. It counts as binding. As to conditions: ES2 cell lysate pre-incubated 45 min at 4° C. (bortezomib or Up compounds 5 μM), then RA190B 20 μM. The procedure: Clarified cell lysate (40 ug/sample) in MPER buffer was pretreated with streptavidin-coated magnetic beads for 45 min at 4° C. to deplete non-specific biotinylated proteins in the cell lysate. […] Next, the samples were mixed with Laemmli sample buffer (BioRad) and boiled for 5 min. The proteins were separated using a 4-15% Bio-Rad Mini-PROTEAN SDS-PAGE gel (1 hr at 100 V), and transferred to PVDF membrane overnight at 4° C. (24 V). The membrane was blocked with 5% BSA in PBST for 1 hr at RT and washed for 20 minutes (3× with PBST). Then the membrane was probed with HRP-streptavidin (1:10,000 in PBST) for 1 hr at RT, washed for 30 min (3× with PBST), and developed using HyGLO chemiluminescent detection reagent (Denville) for biotin detection.
ES2 cell lysates were incubated with 20 μM RA190B for 45 min at 4° C., and then separated by SDS-PAGE, transferred to a PVDF membrane.

T1 sequence (Q16186 whole entry): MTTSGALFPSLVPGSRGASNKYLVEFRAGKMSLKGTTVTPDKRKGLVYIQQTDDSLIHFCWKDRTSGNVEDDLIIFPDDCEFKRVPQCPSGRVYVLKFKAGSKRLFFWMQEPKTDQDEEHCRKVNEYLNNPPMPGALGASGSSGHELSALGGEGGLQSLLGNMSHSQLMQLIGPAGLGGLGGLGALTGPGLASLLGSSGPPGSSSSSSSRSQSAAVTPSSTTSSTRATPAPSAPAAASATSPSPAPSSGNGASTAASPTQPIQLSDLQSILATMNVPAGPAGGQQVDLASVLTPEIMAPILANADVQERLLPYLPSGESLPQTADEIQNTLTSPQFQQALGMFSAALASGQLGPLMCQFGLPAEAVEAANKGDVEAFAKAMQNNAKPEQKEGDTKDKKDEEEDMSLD

`Cl.Cl.N#Cc1ccc(/C=C2/C(=O)/C(=C/c3ccc(C#N)cc3)C23CCN(C(=N)N)CC3)cc1` [RA475]: the half-maximal inhibitory concentration (IC50) (as a rule, the concentration needed to halve the response being measured) in [1] worked out at 160 nM; in series [2], 350 nM; in [3], 359 nM; in [5] it was 217 nM; in series [8], 213 nM; in series [9] it was 229 nM. The “accumulation of high molecular weight polyubiquitinated proteins” value in [4] is given as “triggers the accumulation”. For the same molecule, in series [6], the “7-AAD and Annexin V double positive cells” value is “dose-dependent induction”. Moreover, in series [7] (single dose, intraperitoneal, 80 mg/Kg highest dose level tested), the no observed adverse effect level (NOAEL) (in general, the highest dose or exposure tested at which no adverse effect was seen) is given as more than 80 mg/kg. The “adverse events” value in series [7] (single i.p. doses at or below 80 mg/Kg) was “No evidence of adverse events, including weight loss”.

For `N#Cc1ccc(/C=C2/C(=O)/C(=C/c3ccc(C#N)cc3)C23CCNCC3)cc1` [Up284, reference compound], the “competition with binding of RA190B to the 42 kDa RPN13” value in [10] is “competed”.
